Structures can show the parent of a compound that is named as a salt.
Tests used:
[1] = Metabolic stability in liver microsomes; format: in vitro ADME; conditions: pH 7.4; human liver microsomes 0.5 mg protein/mL; 45 mg microsome protein/g liver, 20 g liver/kg; read-out: Intrinsic Clearance CLint(liver) in Human Liver
Protocol: Test 3: Metabolic Stability in Liver Microsomes
3.1 Experimental Purpose: To test the metabolic stability of the compounds of the present disclosure in human liver microsomes
a. All samples as well as testosterone, diclofenac and propafenone acting as reference substances were dissolved in DMSO to a storage concentration of 10 mM.
b. Intermediate Solution: 5 μL of the substance to be tested or the reference substance was diluted with 45 μL of DMSO (with 450 μL of 1:1 methanol/water).
c. Working Solution: the intermediate solution was diluted with 450 μL of 100 mM potassium phosphate buffer solution (pH 7.4).
Assay Buffer: 100 mM potassium phosphate buffer (pH 7.4) • 10 mM MgCl2
Liver Microsome Solution (final concentration: 0.5 mg protein/mL):
Human liver microsomes, obtained from BD, Cat No. 452117, Lot No. 38291
b. 10 μL of the working solution containing the substance to be tested or the reference substance was added to each of plates (T0, T5, T10, T20, T30, T60, NCF60).
c. The liver microsome solution was dispensed into a 96-well plate in an amount of 680 μL/well, then 80 was added, and then T was added to each of the plates. The above incubation plate was placed at 37° C. and pre-incubated for approximately 10 minutes.
d. 10 μL of 100 mM potassium phosphate buffer was added to each well in the NCF60 plate.
e. After the pre-incubation was finished, the NADPH regeneration system working solution was dispensed into the 96-well plate in an amount of 90 μL/well, and then added to each of the plates in an amount of 10 μL/well to start the reaction.
f. The plates were incubated for an appropriate time (e.g., 5, 10, 20, 30, or 60 minutes).
g. The stop solution (refrigerated at 4° C., containing 100 ng/mL Tolbutamide and 100 ng/mL Labetalol) was added to each sample well in an amount of 300 μL/well.
h. The sample plates were shaken well for about 10 minutes and centrifuged at 4,000 rpm for 20 minutes at 4° C. During the centrifugation, 300 μL of HPLC water was added to each well, and 100 μL of the supernatant was taken for LC-MS/MS analysis.
T1/2 and Clint(mic) were calculated by the following formula: […]
Each gram of liver contained 45 mg of microsome protein, and the liver weight was 20 g/kg in a human.
Ct was the concentration at time t, t was the incubation time, C0 was the concentration at time 0, Ke was an elimination rate constant, Clint(mic) was the intrinsic clearance in liver microsomes, and Clint(liver) was the intrinsic clearance in liver. CLint(mic)=0.693/half-life/mg of microsome protein per mL(concentration of microsomes during incubation) CLint(liver)=CLint(mic)×mg of microsome protein/g of liver weight×a ratio of liver weight to body weight 3.4 Test Results

[2] = molecular target: T1, human μ-subtype opioid receptor (hMOR) (Homo sapiens (Human), UniProt P35372); assay: MOR β-arrestin-2 agonist activity test; format: cell-based; conditions: for Emax: maximum effect of enkephalin DAMGO was 100%, about 0% = no actual agonist activity
Protocol: Test 2: β-Arrestin-2 Agonist Activity Test
2.1 Experimental Purpose: To test the β-arrestin-2 agonist activity of the compounds of the present disclosure on the human μ-subtype opioid receptor (hMOR).
a. All samples were dissolved in DMSO to a storage concentration of 10 mM.
(§1) b. A series of diluted samples were formulated on a 384-well LDV plate. A total of 11 concentration points were obtained by 3.162-fold gradient dilution.
c. The series of diluted samples were transferred to an experimental plate by using an Echo machine, wherein 60 nL of the compound was transferred corresponding to each well.
d. 60 nL of 3.33 mM DAMGO (as HPE) and 60 nL of DMSO (as ZPE) were transferred to the corresponding positions on the experimental plate by using the Echo machine.
The experiment was performed using PathHunter Detection Kit from DiscoveRX Cooperation (DiscoveRX #93-0213C3)
a. Assay buffer and PathHunter detection reagent required for the experiment were formulated.
Assay Buffer: 1×DPBS buffer
PathHunter Detection Reagent: The kit was provided therein with three constituents.
c. The experimental plate was centrifuged at 300 rpm for 30 s and incubated at room temperature for 2 hours.
d. 6 μL of the PathHunter detection reagent was added to each well of the experimental plate.
e. The experimental plate was centrifuged at 300 rpm for 30 seconds, then left at room temperature for 60 minutes, and then read on the Envision.

[3] = molecular target: T1, human μ-subtype opioid receptor (hMOR); assay: MOR cAMP agonist activity test; format: cell-based; conditions: for Emax: maximum effect of enkephalin DAMGO was 100%
Protocol: Test 1: MOR cAMP Agonist Activity Test
1.1 Experimental Purpose: To test the cAMP agonist activity of the compounds of the present disclosure on the human μ-subtype opioid receptor (hMOR).
a. Compound samples were dissolved in DMSO to a storage concentration of 10 mM.
as §1
c. The series of diluted samples were transferred to an experimental plate (Corning-3824) by using an Echo machine, wherein 30 nL was transferred corresponding to each well.
The experiment was performed using a cAMP detection kit from Cisbio (Cisbio #62AM4PEJ).
a. Assay buffer and stimulation buffer (STB) required for the experiment were formulated.
Stimulation Buffer: formulated with the assay buffer, containing 5 μM NKH477 (CAS: 138605-00-2) and 200 μM IBMX (3-isobutyl-1-methylxanthine)
b. […] The number of cells in the well was 10,000 cells/well.
c. The experimental plate was placed in a 37° C. constant-temperature incubator for incubation. The incubation was performed for 40 minutes.
d. A cAMP standard concentration curve was prepared. The first concentration point was at 2848 nM, and a total of sixteen detection concentrations were obtained by 4-fold gradient dilution. There were three replicates for each concentration point.
e. The cAMP detection kit from Cisbio was provided therein with a d2-labeled cAMP reagent (d2 reagent) and an Eu-labeled cAMP antibody reagent (Crypate reagent). The above two reagents were formulated according to the kit instructions, and then added to the sample experimental plate and to the cAMP standard concentration experimental plate, respectively. It was necessary to add 5 μL of the d2 reagent and then 5 μL of the Cryptate reagent to each well.
f. After the experimental plates were left at room temperature for 60 minutes, the experimental plates were read on the Envision.

[4] = Pharmacokinetics of the compounds in rats; format: in vivo, rat
Protocol: 6.1 Experimental Purpose: To measure, using a LC/MS/MS method, the medicament concentrations of the compound in plasma and specific tissues at different time points after the compound was administered by a single intravenous injection (IV) to 7-9-week-old male SD rats used as test animals, to study on the pharmacokinetic behavior of the compound of the present disclosure in rats, and to evaluate the pharmacokinetic characteristics thereof. 6.2 Compound Formulation
Each of them was formulated at a concentration of 1 mg/mL and was used for IV (intravenous injection) administration.
The actual weights of the rats were weighed on the day of administration and volumes to be administered were calculated. The above formulated solutions to be administered were administered by injection into caudal veins of rats.
About 0.2 mL of whole blood samples were collected by means of jugular vein puncture at the time set in the experimental protocol, and the actual blood collection time was recorded in the experimental records. All the blood samples were added to labeled plastic centrifuge tubes to which K2-EDTA anticoagulant was added in advance. After the blood samples were collected, they were centrifuged at 3,000 g for 10 minutes at 4° C. to prepare the supernatant plasma, and the plasma was stored at −20° C. or a lower temperature for LC-MS/MS analysis.
The concentrations of the compounds in rat plasma were measured by using high-performance liquid chromatography-tandem mass spectrometry (LC-MS/MS). The retention durations of the compounds and internal standard, chromatogram acquisition, and integration of chromatograms were processed using the software Analyst (Applied Biosystems), and data statistics were processed using the software Watson LIMS (Thermo Fisher Scientific) or Analyst (Applied Biosystems). The plasma concentration was processed using a non-compartmental model of WinNonlin™ Version 6.3 (Pharsight, Mountain View, Calif.) which was a pharmacokinetic software, and the pharmacokinetic parameters were calculated using a linear logarithmic trapezoidal method.

[5] = >30000 nM = greater than the highest detection concentration, read-out: MOR β-arrestin-2 EC50

Compound | EC50 [2, 5] | Emax [2] | EC50 [3] | Emax [3] | also measured
COc1ccsc1CNCC[C@@]1(c2ccc(F)cc2)CCO[C@]2(CCOC2)C1 [(+)-3] | > 30000 nM | ~0% | 3 nM | 82% | CLint scaled [1]: 39 mL/min/kg
Fc1ccc([C@]2(CCNCc3scc4c3CCC4)CCO[C@]3(CCOC3)C2)nc1 [(+)-5] | > 30000 nM | ~0% |  | 96.5% | Apparent Clearance Cl ([4]; male SD rats, single IV, mg/Kg: Comparative Compound 1 1.80, (+)-5 2.40, (+)-16 1.76, HCl salt of (+)-23 1.71): 58.9 mL/min/kg; Vd ([4]; male, SD, rat, plasma, iv, read-out: Apparent Distribution Volume Vd): 3.6 L/kg; AUC(0-inf) ([4]; male, SD, rat, plasma, iv, read-out: Area under the Curve AUC0-inf): 1.4 µM·h; half-life ([4]; male, SD, rat, plasma, iv, read-out: Hal-life T1/2 (converted)): 54 min; C0 ([4]; male, SD, rat, plasma, iv, read-out: Initial Concentration C0): 1810 nM; Brain/Plasm Ratio B/P ratio ([4]; rats, IV, sampling point […], mg/Kg: Comparative Compound 1 0.56, (+)-5 2.40, (+)-16 1.76, HCl salt of (+)-23 1.71): 2.19
Fc1ccnc([C@]2(CCNCc3scc4c3CCC4)CCO[C@]3(CCOC3)C2)c1 [(+)-6] | > 30000 nM | ~0% | 1.8 nM | 86.5% | CLint scaled [1]: 86 mL/min/kg
c1ccc([C@]2(CCNCc3scc4c3COC4)CCO[C@]3(CCOC3)C2)nc1 [(+)-7] | > 30000 nM | ~0% | 14.1 nM | 90.4% | 
Cc1cc(C)cc(CNCC[C@@]2(c3ccccn3)CCO[C@]3(CCOC3)C2)c1 [(+)-10] | > 30000 nM | ~0% | 11.6 nM | 96.6% | 
c1ccc([C@]2(CCNCc3cccc4c3CCCC4)CCO[C@]3(CCOC3)C2)nc1 [(+)-11] | > 30000 nM | ~0% | 1.4 nM | 87.2% | CLint scaled [1]: 72.5 mL/min/kg
Cc1ccsc1CNCC[C@@]1(c2ccc(F)cc2)CCO[C@]2(CCOC2)C1 [(+)-13] | > 30000 nM | ~0% | 4.1 nM | 61.2% | 
Fc1ccc([C@]2(CCNCc3cccs3)CCO[C@]3(CCOC3)C2)cc1 [(+)-14] |  | ~0% |  |  | 
Fc1ccc([C@]2(CCNCc3ccc(Cl)cc3)CCO[C@]3(CCOC3)C2)nc1 [(+)-17] | > 30000 nM | ~0% | 8.9 nM | 78.5% | 
c1ccc([C@]2(CCNCc3cccc4c3CCC4)CCO[C@]3(CCOC3)C2)nc1 [(+)-19] | > 30000 nM | ~0% | 4.5 nM | 69.9% | 
Clc1ccc(CNCC[C@@]2(c3ccccn3)CCO[C@]3(CCOC3)C2)cc1Cl [(+)-20] | > 30000 nM | ~0% | 3.1 nM | 99.6% | 
Clc1cc(Cl)cc(CNCC[C@@]2(c3ccccn3)CCO[C@]3(CCOC3)C2)c1 [(+)-21] | > 30000 nM | ~0% | 2.2 nM | 92.3% | 
c1ccc([C@]2(CCN[C@H]3CCc4ccccc43)CCO[C@]3(CCOC3)C2)nc1 [(+)-25] | > 30000 nM | ~0% |  | 90% | 
Fc1ccc([C@]2(CCN[C@H]3CCCc4ccccc43)CCO[C@]3(CCOC3)C2)nc1 [(+)-26] | > 30000 nM | ~0% | 0.2 nM | 96% | 
c1ccc([C@]2(CCN[C@H]3CCCc4ccccc43)CCO[C@]3(CCOC3)C2)nc1 [(+)-27] | > 30000 nM | ~0% | 0.8 nM | 91% | 
Fc1ccc([C@]2(CCNCc3scc4c3CCC4)CCO[C@]3(CCOC3)C2)cc1 [Formate Salt of (+)-4] | > 30000 nM | ~0% | 0.07 nM |  | 
Fc1ccc([C@]2(CCNCc3scc4c3COC4)CCO[C@]3(CCOC3)C2)cc1 [Hydrochloride Salt of (+)-12] | > 30000 nM | ~0% | 6.8 nM |  | 
Fc1ccc([C@]2(CCNCc3cc(Cl)cc(Cl)c3)CCO[C@]3(CCOC3)C2)nc1 [Hydrochloride Salt of (+)-24] | > 30000 nM | ~0% | 0.2 nM | 95% | 
c1ccc([C@]2(CCNCc3cc4c(s3)CCC4)CCOC3(CCCC3)C2)nc1 [compound 2, reference compound] |  | 35.2% |  | 105% | EC50 [2]: 500 nM
